Laboratory results taken from the NIST ThermoML archive (doi:10.1016/j.jct.2007.01.017).

Tests used:
[1] = Liquid; for mass density: 298.15 K, 101.33 kPa; for vapor or sublimation pressure: 313.15 K
[2] = excess molar enthalpy (molar enthalpy of mixing); xn = mol fraction of the nth substance listed; conditions: 101 kPa, Liquid, Flow calorimetry

CCCCCl [1-chlorobutane]
[1]
Conditions	mass density [kg/m3]	vapor or sublimation pressure [kPa]
–	880.72	25.72

CCCCCl [1-chlorobutane] + CC(=O)N(C)C
[2]
Conditions	excess molar enthalpy [kJ/mol]
298.15 K, x2 = 0.06	0.068
298.15 K, x2 = 0.111	0.141
298.15 K, x2 = 0.212	0.244
298.15 K, x2 = 0.312	0.313
298.15 K, x2 = 0.412	0.354
298.15 K, x2 = 0.511	0.363
298.15 K, x2 = 0.61	0.348
298.15 K, x2 = 0.708	0.305
298.15 K, x2 = 0.805	0.234
298.15 K, x2 = 0.902	0.13
298.15 K, x2 = 0.95	0.069
308.15 K, x2 = 0.057	0.068
308.15 K, x2 = 0.106	0.14
308.15 K, x2 = 0.206	0.246
308.15 K, x2 = 0.305	0.318
308.15 K, x2 = 0.404	0.362
308.15 K, x2 = 0.503	0.375
308.15 K, x2 = 0.602	0.361
308.15 K, x2 = 0.7	0.317
308.15 K, x2 = 0.799	0.243
308.15 K, x2 = 0.897	0.139
308.15 K, x2 = 0.946	0.072
308.15 K, x2 = 0.966	0.041

CCCCCl [1-chlorobutane] + CN(C)C=O
excess molar enthalpy [kJ/mol], [2]
Conditions	298.15 K	308.15 K
x2 = 0.056	0.123	–
x2 = 0.058	–	0.117
x2 = 0.106	0.239	–
x2 = 0.108	–	0.231
x2 = 0.207	0.404	0.4
x2 = 0.306	–	0.508
x2 = 0.308	0.509	–
x2 = 0.404	–	0.568
x2 = 0.407	0.564	–
x2 = 0.503	–	0.58
x2 = 0.507	0.571	–
x2 = 0.602	–	0.552
x2 = 0.606	0.54	–
x2 = 0.701	–	0.481
x2 = 0.705	0.467	–
x2 = 0.799	–	0.364
x2 = 0.803	0.352	–
x2 = 0.898	–	0.201
x2 = 0.901	0.192	–
x2 = 0.947	–	0.103
x2 = 0.95	0.098	–
x2 = 0.967	–	0.061

CCCCCCCl [1-chlorohexane]
[1]
Conditions	mass density [kg/m3]	vapor or sublimation pressure [kPa]
–	873.21	2.857

CCCCCCCl [1-chlorohexane] + CC(=O)N(C)C
excess molar enthalpy [kJ/mol], [2]
Conditions	298.15 K	308.15 K
x2 = 0.059	–	0.106
x2 = 0.064	0.105	–
x2 = 0.108	–	0.204
x2 = 0.113	0.199	–
x2 = 0.206	–	0.391
x2 = 0.211	0.38	–
x2 = 0.304	–	0.52
x2 = 0.309	0.499	–
x2 = 0.402	–	0.602
x2 = 0.407	0.575	–
x2 = 0.501	–	0.642
x2 = 0.505	0.61	–
x2 = 0.6	–	0.631
x2 = 0.603	0.598	–
x2 = 0.698	–	0.569
x2 = 0.701	0.538	–
x2 = 0.798	0.425	0.453
x2 = 0.896	0.246	–
x2 = 0.897	–	0.262
x2 = 0.945	0.132	–
x2 = 0.947	–	0.14
x2 = 0.967	–	0.084

CCCCCCCl [1-chlorohexane] + CN(C)C=O
[2]
Conditions	excess molar enthalpy [kJ/mol]
298.15 K, x2 = 0.058	0.161
298.15 K, x2 = 0.107	0.306
298.15 K, x2 = 0.205	0.542
298.15 K, x2 = 0.303	0.694
298.15 K, x2 = 0.402	0.802
298.15 K, x2 = 0.5	0.847
298.15 K, x2 = 0.598	0.822
298.15 K, x2 = 0.697	0.741
298.15 K, x2 = 0.796	0.583
298.15 K, x2 = 0.894	0.336
298.15 K, x2 = 0.944	0.175
308.15 K, x2 = 0.062	0.144
308.15 K, x2 = 0.111	0.316
308.15 K, x2 = 0.208	0.555
308.15 K, x2 = 0.305	0.721
308.15 K, x2 = 0.403	0.826
308.15 K, x2 = 0.501	0.87
308.15 K, x2 = 0.6	0.848
308.15 K, x2 = 0.699	0.761
308.15 K, x2 = 0.798	0.6
308.15 K, x2 = 0.897	0.349
308.15 K, x2 = 0.947	0.183
308.15 K, x2 = 0.967	0.108

CCCCCCCCCl [1-chlorooctane]
Conditions	mass density [kg/m3]
[1]	868.98

CCCCCCCCCl [1-chlorooctane] + CC(=O)N(C)C
[2]
Conditions	excess molar enthalpy [kJ/mol]
298.15 K, x2 = 0.067	0.136
298.15 K, x2 = 0.117	0.273
298.15 K, x2 = 0.215	0.519
298.15 K, x2 = 0.313	0.676
298.15 K, x2 = 0.411	0.78
298.15 K, x2 = 0.508	0.829
298.15 K, x2 = 0.606	0.821
298.15 K, x2 = 0.703	0.751
298.15 K, x2 = 0.8	0.609
298.15 K, x2 = 0.897	0.37
298.15 K, x2 = 0.945	0.202
308.15 K, x2 = 0.061	0.135
308.15 K, x2 = 0.11	0.274
308.15 K, x2 = 0.207	0.531
308.15 K, x2 = 0.305	0.703
308.15 K, x2 = 0.403	0.817
308.15 K, x2 = 0.501	0.874
308.15 K, x2 = 0.6	0.871
308.15 K, x2 = 0.699	0.8
308.15 K, x2 = 0.798	0.651
308.15 K, x2 = 0.898	0.396
308.15 K, x2 = 0.948	0.216
308.15 K, x2 = 0.968	0.126

CCCCCCCCCl [1-chlorooctane] + CN(C)C=O
[2]
Conditions	excess molar enthalpy [kJ/mol]
298.15 K, x2 = 0.064	0.174
298.15 K, x2 = 0.113	0.361
298.15 K, x2 = 0.21	0.68
298.15 K, x2 = 0.308	0.886
298.15 K, x2 = 0.405	1.029
298.15 K, x2 = 0.502	1.087
298.15 K, x2 = 0.6	1.071
298.15 K, x2 = 0.698	0.978
298.15 K, x2 = 0.795	0.79
298.15 K, x2 = 0.893	0.49
298.15 K, x2 = 0.942	0.265
308.15 K, x2 = 0.069	0.213
308.15 K, x2 = 0.117	0.385
308.15 K, x2 = 0.212	0.678
308.15 K, x2 = 0.309	0.917
308.15 K, x2 = 0.406	1.064
308.15 K, x2 = 0.503	1.128
308.15 K, x2 = 0.601	1.115
308.15 K, x2 = 0.699	1.018
308.15 K, x2 = 0.798	0.828
308.15 K, x2 = 0.898	0.501
308.15 K, x2 = 0.948	0.28
308.15 K, x2 = 0.968	0.167

CC(=O)N(C)C [N,N-dimethylethanamide]
Conditions	mass density [kg/m3]
[1]	936.34

CN(C)C=O [dimethylformamide]
Conditions	mass density [kg/m3]
[1]	943.81
